The record followed here is paper PMC12207370, “Macrocyclic Peptide Probes for Immunomodulatory Protein CD59: Potent Modulators of Bacterial Toxin Activity and Antibody‐Dependent Cytotoxicity” (Angewandte Chemie (International Ed. in English), 2025).

Peptide text beside a SMILES is read from it.

In the first experiment the target is T1, CD59 (Homo sapiens, UniProt P13987).
T1 construct: Recombinant soluble human CD59 with an additional C-terminal cysteine residue
T1 sequence (P13987 26-102 limits assumed): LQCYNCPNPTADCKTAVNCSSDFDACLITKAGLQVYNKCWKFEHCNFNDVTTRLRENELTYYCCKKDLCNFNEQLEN
Briefly: SPR (Biacore S200) binding to immobilised biotinylated CD59. To be noted: Ala scan of CP-06, SPR, n = 1; read-out: KD. From the text:
To identify which of these peptides bound CD59 most tightly, we used a Biacore S200 surface plasmon resonance (SPR) platform to investigate CD59 affinity (Figure 2b), using a known protein binding partner of CD59 (rILYd4) as a benchmark. Four 13‐mer macrocyclic peptides and one 14‐mer macrocyclic peptide were identified with a dissociation constant (K D) lower than that of rILYd4. Considering their fourfold lower molecular weight, these peptides bind with up to 19‐fold greater efficiency compared to rILYd4 (Figure 2b).
Equipment: SPR analysis was performed on a Cytiva Biacore S200. All buffers were prepared using ultra-pure water from a Millipore Elix Q-Gard purification system. Solutions and buffers were filtered with a 0.22 μm filter and degassed prior to use. The assays were performed on Series S streptavidin (SA) sensor chip (Cytiva). PBS-P+ buffer 10X (0.2 M phosphate buffer with 27 mM KCl, 1.37 M NaCl and 0.5% Surfactant P20 (Tween 20)) was used for the preparation of the assay running buffer (PBS-P+ 1X).
Immobilisation of CD59-biotin: Biotinylated CD59 was immobilised on the surface of a SA chip by non-covalent capture (biotin streptavidin interaction) as per the manufacturer’s instructions. The system was initially primed with running buffer and normalised using BIAnormalizing solution (70% (w/w) glycerol) (Cytiva). Before immobilising the protein, the surface was conditioned with three consecutive one-minute injections of 1 M NaCl in 50 mM NaOH. Biotinylated CD59 (0.5 µg/mL in running buffer) was flowed over the protein (active) channel for different contact times to achieve different immobilisation levels (600–1200 RU). After each protein injection, the needle and injection loop were washed using 50% isopropanol in 1 M NaCl and 50 mM NaOH. A reference channel was prepared by similar treatment; however, running buffer alone rather than CD59-biotin in running buffer was flowed over the chip the same way.
Interaction analysis: Multicycle kinetic and affinity approach was used for the analysis of peptides interactions with CD59. Two-fold serial dilutions of each peptide were prepared in running buffer and were flowed over both the ligand and reference channel using a flow rate (30 μL/min) at 25 °C. A zero concentration was added to each analyte series and three cycles of buffer were run between analytes to restore the baseline. The obtained sensorgrams were analysed using the embedded Biacore S200 Evaluation software. The data were normalised by subtracting RU values of the reference channel and zero concentration of the analyte series. Kinetic rate constants (kon and koff) were determined by fitting the normalised data using the built-in Kinetic analysis model (non-linear regression with a 1:1 Langmuir binding model), KD values were then calculated from the two rate constants ([…]). The KD values were determined again by fitting the normalised data using the built-in Affinity analysis model (1:1 Langmuir binding model).
As a reminder, the Kd is the equilibrium constant for the complex coming apart. For the compound `CC(C)[C@@H]1NC(=O)[C@H](CO)NC(=O)[C@H](CO)NC(=O)[C@H](C)NC(=O)[C@H](CC(N)=O)NC(=O)CNC(=O)[C@H](Cc2c[nH]c3ccccc23)NC(=O)[C@H]([C@@H](C)O)NC(=O)[C@H](Cc2c[nH]c3ccccc23)NC(=O)[C@H](CO)NC(=O)[C@@H](Cc2ccc(O)cc2)NC(=O)CSC[C@@H](C(N)=O)NC(=O)CNC(=O)[C@H](CCCNC(=N)N)NC1=O` [CP-06-R8A] (HELM PEPTIDE1{[O=C(C[*:3])[*:2]].[dY].S.W.T.W.G.N.A.S.S.V.R.G.C.[am]}$PEPTIDE1,PEPTIDE1,1:R3-15:R3$$$V2.0), the Kd amounted to 18 nM.

Consider `CC(C)[C@@H]1NC(=O)[C@H](CO)NC(=O)[C@H](CO)NC(=O)[C@H](CCCNC(=N)N)NC(=O)[C@H](C)NC(=O)CNC(=O)[C@H](Cc2c[nH]c3ccccc23)NC(=O)[C@H]([C@@H](C)O)NC(=O)[C@H](Cc2c[nH]c3ccccc23)NC(=O)[C@H](CO)NC(=O)[C@@H](Cc2ccc(O)cc2)NC(=O)CSC[C@@H](C(N)=O)NC(=O)CNC(=O)[C@H](CCCNC(=N)N)NC1=O` [CP-06-N7A] (HELM PEPTIDE1{[O=C(C[*:3])[*:2]].[dY].S.W.T.W.G.A.R.S.S.V.R.G.C.[am]}$PEPTIDE1,PEPTIDE1,1:R3-15:R3$$$V2.0), for which the Kd was determined as 209 nM.

In the case of `CC(C)[C@@H]1NC(=O)[C@H](CO)NC(=O)[C@H](CO)NC(=O)[C@H](CCCNC(=N)N)NC(=O)[C@H](CC(N)=O)NC(=O)CNC(=O)[C@H](Cc2c[nH]c3ccccc23)NC(=O)[C@H]([C@@H](C)O)NC(=O)[C@H](Cc2c[nH]c3ccccc23)NC(=O)[C@H](CO)NC(=O)[C@@H](Cc2ccc(O)cc2)NC(=O)CSC[C@@H](C(N)=O)NC(=O)[C@H](C)NC(=O)[C@H](CCCNC(=N)N)NC1=O` [CP-06-G13A] (HELM PEPTIDE1{[O=C(C[*:3])[*:2]].[dY].S.W.T.W.G.N.R.S.S.V.R.A.C.[am]}$PEPTIDE1,PEPTIDE1,1:R3-15:R3$$$V2.0), the Kd was determined as 678 nM.

For `CC(C)[C@@H]1NC(=O)[C@H](CO)NC(=O)[C@H](CO)NC(=O)[C@H](CCCNC(=N)N)NC(=O)[C@H](CC(N)=O)NC(=O)CNC(=O)[C@H](C)NC(=O)[C@H]([C@@H](C)O)NC(=O)[C@H](Cc2c[nH]c3ccccc23)NC(=O)[C@H](CO)NC(=O)[C@@H](Cc2ccc(O)cc2)NC(=O)CSC[C@@H](C(N)=O)NC(=O)CNC(=O)[C@H](CCCNC(=N)N)NC1=O` [CP-06-W5A] (HELM PEPTIDE1{[O=C(C[*:3])[*:2]].[dY].S.W.T.A.G.N.R.S.S.V.R.G.C.[am]}$PEPTIDE1,PEPTIDE1,1:R3-15:R3$$$V2.0), the Kd stood at 207 nM.

`CC(C)[C@@H]1NC(=O)[C@H](CO)NC(=O)[C@H](CO)NC(=O)[C@H](CCCNC(=N)N)NC(=O)[C@H](CC(N)=O)NC(=O)CNC(=O)[C@H](Cc2c[nH]c3ccccc23)NC(=O)[C@H]([C@@H](C)O)NC(=O)[C@H](Cc2c[nH]c3ccccc23)NC(=O)[C@H](CO)NC(=O)[C@@H](Cc2ccc(O)cc2)NC(=O)CSC[C@@H](C(N)=O)NC(=O)CNC(=O)[C@H](C)NC1=O` [CP-06-R12A] (HELM PEPTIDE1{[O=C(C[*:3])[*:2]].[dY].S.W.T.W.G.N.R.S.S.V.A.G.C.[am]}$PEPTIDE1,PEPTIDE1,1:R3-15:R3$$$V2.0): the Kd came to 97 nM.

With `CC(C)[C@@H]1NC(=O)[C@H](CO)NC(=O)[C@H](CO)NC(=O)[C@H](CCCNC(=N)N)NC(=O)[C@H](CC(N)=O)NC(=O)CNC(=O)[C@H](Cc2c[nH]c3ccccc23)NC(=O)[C@H]([C@@H](C)O)NC(=O)[C@H](C)NC(=O)[C@H](CO)NC(=O)[C@@H](Cc2ccc(O)cc2)NC(=O)CSC[C@@H](C(N)=O)NC(=O)CNC(=O)[C@H](CCCNC(=N)N)NC1=O` [CP-06-W3A] (HELM PEPTIDE1{[O=C(C[*:3])[*:2]].[dY].S.A.T.W.G.N.R.S.S.V.R.G.C.[am]}$PEPTIDE1,PEPTIDE1,1:R3-15:R3$$$V2.0), the Kd turned out to be 1200 nM.

Still in this experiment, the particulars now being: SPR, immobilized CD59, average of three technical replicates ± SEM; read-out: KD (nM) ± SEM.
With `CC(C)[C@@H]1NC(=O)[C@H](Cc2c[nH]cn2)NC(=O)[C@@H](Cc2ccc(O)cc2)NC(=O)CSC[C@@H](C(N)=O)NC(=O)CNC(=O)[C@H](CCCNC(=N)N)NC(=O)[C@H]([C@@H](C)O)NC(=O)[C@H](Cc2ccccc2)NC(=O)[C@H](CO)NC(=O)[C@H](CCCNC(=N)N)NC(=O)[C@H](CC(N)=O)NC(=O)CNC(=O)[C@H](Cc2ccccc2)NC1=O` [CP-04] (HELM PEPTIDE1{[O=C(C[*:3])[*:2]].[dY].H.V.F.G.N.R.S.F.T.R.G.C.[am]}$PEPTIDE1,PEPTIDE1,1:R3-14:R3$$$V2.0), the Kd worked out at 11.9 ± 0.3 nM.
